Data from publication PMC8881610 (Nature Communications, 2022).
Residue numbers refer to the chain shown, from its start.

Assays:
Assay in all cases: Whole-cell binding assay, competition with 125I-GIP1-42
Parameters in all cases: acylated tirzepatide to the full-length or modified; Flag; expressed in transfected cells
[1] = target: T1, GIPR (Homo sapiens, UniProt P48546, D191A); details: GIPR D191A, CHO-K1
T1 sequence (P48546 22-466 D191A): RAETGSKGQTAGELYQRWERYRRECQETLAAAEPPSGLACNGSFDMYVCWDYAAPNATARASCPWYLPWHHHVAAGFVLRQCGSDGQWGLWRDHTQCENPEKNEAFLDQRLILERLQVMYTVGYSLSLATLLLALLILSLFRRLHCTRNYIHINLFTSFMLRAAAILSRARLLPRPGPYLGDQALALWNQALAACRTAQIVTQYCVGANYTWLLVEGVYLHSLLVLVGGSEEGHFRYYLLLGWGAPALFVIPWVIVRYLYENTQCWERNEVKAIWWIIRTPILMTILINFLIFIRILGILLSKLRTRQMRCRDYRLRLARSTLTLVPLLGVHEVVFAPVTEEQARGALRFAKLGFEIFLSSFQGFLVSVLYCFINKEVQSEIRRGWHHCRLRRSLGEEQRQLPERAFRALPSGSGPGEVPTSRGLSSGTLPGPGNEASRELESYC
Method in brief: (§1)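 Transiently transfected CHO-K1 cells expressing WT or mutant GIPR were washed in F-12 with 0.1% BSA or 0.1% casein and 33 mM HEPES, then incubated 2 h at 37 °C. After ice-cold PBS washes, cells were lysed and bound radioactivity counted (CPM).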

[2] = target: T2, GIPR (Homo sapiens, UniProt P48546, Y141A); details: GIPR Y141A, CHO-K1
T2 sequence (P48546 22-466 Y141A): T1 sequence (P48546 22-466 D191A) with Y120A, A170D
Method in brief: as §1

[3] = target: T3, GIPR (Homo sapiens, UniProt P48546, R370A); details: GIPR R370A, CHO-K1
T3 sequence (P48546 22-466 R370A): T1 sequence (P48546 22-466 D191A) with A170D, R349A
Method in brief: as §1

[4] = target: T4, GIPR (Homo sapiens, UniProt P48546, T345F); details: GIPR T345F; CHO-K1; read-out: binding pIC50 (converted)
T4 sequence (P48546 22-466 T345F): T1 sequence (P48546 22-466 D191A) with A170D, T324F
Method in brief: as §1

[5] = read-out: binding pIC50 (converted)

Row | Compound | binding Span [1] | IC50 [1, 5] | binding Span [2] | IC50 [2, 5] | binding Span [3] | IC50 [3, 5] | IC50 [4] | binding pIC50 [1] | binding pIC50 [2] | binding pIC50 [3]
1 | CCCCCCCCCCCCCCCC(=O)N[C@@H](CCC(=O)NCCCC[C@H](NC(=O)[C@H](CC(=O)O)NC(=O)[C@H](CO)NC(=O)[C@@H](NC(=O)[C@H](Cc1ccccc1)NC(=O)[C@@H](NC(=O)CNC(=O)[C@H](CCC(N)=O)NC(=O)C(C)(C)NC(=O)[C@@H](N)Cc1c[nH]cn1)[C@@H](C)O)[C@@H](C)O)C(=O)N[C@@H](CO)C(=O)N[C@@H](CCCCN)C(=O)N[C@@H](Cc1ccc(O)cc1)C(=O)N[C@@H](CC(C)C)C(=O)N[C@@H](CC(=O)O)C(=O)N[C@@H](CCC(=O)O)C(=O)N[C@@H](CCCNC(=N)N)C(=O)N[C@@H](C)C(=O)N[C@@H](C)C(=O)N[C@@H](CCC(N)=O)C(=O)N[C@@H](CC(=O)O)C(=O)N[C@@H](Cc1ccccc1)C(=O)N[C@H](C(=O)N[C@@H](CCC(N)=O)C(=O)N[C@@H](Cc1c[nH]c2ccccc12)C(=O)N[C@@H](CC(C)C)C(=O)N[C@@H](CC(C)C)C(=O)N[C@@H](CC(=O)O)C(=O)NCC(=O)NCC(=O)N1CCC[C@H]1C(=O)N[C@@H](CO)C(=O)N[C@@H](CO)C(=O)NCC(=O)N[C@@H](C)C(=O)N1CCC[C@H]1C(=O)N1CCC[C@H]1C(=O)N1CCC[C@H]1C(=O)N[C@@H](CO)C(N)=O)C(C)C)C(=O)O [Peptide 20] | 12.29 ± 1.02 % WT | 9.12 nM | 14.88 ± 1.95 % WT | 2.4 nM | 22.84 ± 2.01 % WT | 5.62 nM | 24 nM | – | – | –
2 | CC[C@H](C)[C@H](NC(=O)[C@H](CC(C)C)NC(=O)[C@H](Cc1c[nH]c2ccccc12)NC(=O)[C@H](CCC(N)=O)NC(=O)[C@@H](NC(=O)[C@H](Cc1ccccc1)NC(=O)[C@H](C)NC(=O)[C@H](CCCCNC(=O)COCCOCCNC(=O)COCCOCCNC(=O)CC[C@H](NC(=O)CCCCCCCCCCCCCCCCCCC(=O)O)C(=O)O)NC(=O)[C@H](CCC(N)=O)NC(=O)[C@H](C)NC(=O)[C@@H](NC(=O)[C@H](CCCCN)NC(=O)[C@H](CC(=O)O)NC(=O)[C@H](CC(C)C)NC(=O)C(C)(C)NC(=O)[C@@H](NC(=O)[C@H](CO)NC(=O)[C@H](Cc1ccc(O)cc1)NC(=O)[C@H](CC(=O)O)NC(=O)[C@H](CO)NC(=O)[C@@H](NC(=O)[C@H](Cc1ccccc1)NC(=O)[C@@H](NC(=O)CNC(=O)[C@H](CCC(=O)O)NC(=O)C(C)(C)NC(=O)[C@@H](N)Cc1ccc(O)cc1)[C@@H](C)O)[C@@H](C)O)[C@@H](C)CC)[C@@H](C)CC)C(C)C)C(=O)N[C@@H](C)C(=O)NCC(=O)NCC(=O)N1CCC[C@H]1C(=O)N[C@@H](CO)C(=O)N[C@@H](CO)C(=O)NCC(=O)N[C@@H](C)C(=O)N1CCC[C@H]1C(=O)N1CCC[C@H]1C(=O)N1CCC[C@H]1C(=O)N[C@@H](CO)C(N)=O [Tirzepatide] | – | – | – | – | 10.40 ± 2.67 % WT | – | 129 nM | N.B. | N.B. | N.B.
